Measurements reported in ChEMBL document CHEMBL4325859, “Research advances on anticancer activities of matrine and its derivatives: An updated overview” (Eur J Med Chem, 2019).

Tests used:
HeLa = experiment: Induction of apoptosis in human HeLa cells at 50 ug/ml after 48 hrs by Annexin V-FITC/propidium iodide staining based flow cytometry relative to control; assay type: functional
HT-29 [1] = experiment: Growth inhibition of human HT-29 cells at 8 ml/L after 24 hrs by MTT assay relative to control; assay type: functional
D341 cell line [2] = experiment: Growth inhibition of human D341 cells at 0.5 mg/ml after 72 hrs by CCK8 assay relative to control; assay type: functional; conditions: D341, 72 h, read-out: GI
[3] = Growth inhibition of human MM1R cells at […] after 24 hrs relative to control; assay type: functional; conditions: MM.1R, read-out: GI
HepG2 [4] = experiment: Antiproliferative activity against human HepG2 cells by MTT assay; assay type: functional, cell-based
[5] = target: ATP-dependent translocase ABCB1 (Homo sapiens, UniProt P08183); experiment: Reversal of P-gp-mediated drug resistance in human MCF7/ADR cells assessed as increase in adriamycin accumulation at 0.2 mg/ml relative to control; assay type: cell-based
[6] = Growth inhibition of human GRC1 cells at 0.3 g/L after 48 hrs by MTT assay relative to control; assay type: functional; conditions: read-out: GI
HT-29 [7] = experiment: Growth inhibition of human HT-29 cells at 0.5 mg/ml by MTT assay relative to control; assay type: functional; conditions: read-out: GI
K562 = experiment: Antiproliferative activity against human K562 cells after 72 hrs by MTT assay; assay type: functional, cell-based; conditions: K562, 72 h
HT-29 [8] = experiment: Growth inhibition of human HT-29 cells at 2 ml/L after 48 hrs by MTT assay relative to control; assay type: functional
HT-29 [9] = experiment: Growth inhibition of human HT-29 cells at 32 ml/L after 24 hrs by MTT assay relative to control; assay type: functional
RPMI-8226 [10] = experiment: Growth inhibition of human RPMI8226 cells at 1500 mg/L after 48 hrs by MTT assay relative to control; assay type: functional; conditions: RPMI-8226, 48 h, read-out: GI
U-937 = experiment: Induction of apoptosis in human U937 cells after 24 hrs by Annexin V-FITC/propidium iodide staining based flow cytometry relative to control; assay type: functional
[11] = Growth inhibition of human GRC1 cells at 0.5 g/L after 48 hrs by MTT assay relative to control; assay type: functional; conditions: read-out: GI
C-33-A = experiment: Antiproliferative activity against human C33A cells after 48 hrs by CCK8 assay; assay type: functional, cell-based
HepG2 [12] = experiment: Antiproliferative activity against human HepG2 cells after 48 hrs by MTT assay; assay type: functional, cell-based; conditions: HepG2, 48 h
PANC-1 = experiment: Induction of apoptosis in human PANC1 cells at 1.25 mg/ml by flow cytometry (reference value: 4.13%); assay type: functional
HT-29 [13] = experiment: Growth inhibition of human HT-29 cells at 16 ml/L after 36 hrs by MTT assay relative to control; assay type: functional
HT-29 [14] = experiment: Growth inhibition of human HT-29 cells at 2 ml/L after 24 hrs by MTT assay relative to control; assay type: functional
HT-29 [15] = experiment: Growth inhibition of human HT-29 cells at 0.25 mg/ml by MTT assay relative to control; assay type: functional; conditions: read-out: GI
UMR108 [16] = experiment: Growth inhibition of rat UMR108 cells assessed as cell proliferation at 1 mg/ml after 72 hrs by MTT assay (reference value: 0.403 +/- 0.009%); assay type: functional; conditions: UMR108, 72 h, read-out: Activity
D341 cell line [17] = experiment: Growth inhibition of human D341 cells at 2 mg/ml after 24 hrs by CCK8 assay relative to control; assay type: functional; conditions: D341, 24 h, read-out: GI
Ca-Ski = experiment: Antiproliferative activity against human CaSki cells after 48 hrs by CCK8 assay; assay type: functional, cell-based
U-266 = experiment: Induction of apoptosis in human U266 cells at 2 g/L after 48 hrs by Annexin V-FITC/propidium iodide staining based flow cytometry (Rvb < 3%); assay type: functional
HepG2 [18] = experiment: Induction of apoptosis in human HepG2 cells at 1 mg/ml by Annexin V-FITC/propidium iodide staining based flow cytometry (reference value: 0.14%); assay type: functional
[19] = Antiproliferative activity against human GBC-SD cells after 48 hrs by MTT assay; assay type: functional, cell-based
UMR108 [20] = experiment: Growth inhibition of rat UMR108 cells assessed as cell proliferation at 0.5 mg/ml after 72 hrs by MTT assay (reference value: 0.403 +/- 0.009%); assay type: functional; conditions: UMR108, 72 h, read-out: Activity
MG-63 = experiment: Growth inhibition of human MG63 cells after 48 hrs by MTT assay; assay type: functional, cell-based; conditions: MG-63, 48 h
HepG2 [21] = experiment: Induction of apoptosis in human HepG2 cells at 2 mg/ml by Annexin V-FITC/propidium iodide staining based flow cytometry (reference value: 0.14%); assay type: functional
RD [22] = experiment: Induction of apoptosis in human RD cells at 1.5 mg/ml after 24 hrs by Annexin V-FITC/propidium iodide staining based flow cytometry relative to control; assay type: functional
HOS-TE85 = experiment: Growth inhibition of human MNNG-HOS cells after 48 hrs by MTT assay; assay type: functional, cell-based; conditions: HOS-TE85, 48 h
HK-2 = experiment: Antiproliferative activity against human HK2 cells after 48 hrs by CCK8 assay; assay type: functional, cell-based; conditions: HK-2, 48 h
HepG2 [23] = experiment: Induction of apoptosis in human HepG2 cells at 0.5 mg/ml by Annexin V-FITC/propidium iodide staining based flow cytometry (reference value: 0.14%); assay type: functional
5637 = experiment: Antiproliferative activity against human 5637 cells after 48 hrs by CCK8 assay; assay type: functional, cell-based; conditions: Homo sapiens, 5637, 48 h
MCF7 = experiment: Antiproliferative activity against human MCF7 cells after 48 hrs relative to control; assay type: functional
NB-4 = experiment: Induction of apoptosis in human NB4 cells after 24 hrs by Annexin V-FITC/propidium iodide staining based flow cytometry relative to control; assay type: functional
HL-60 = experiment: Antiproliferative activity against human HL60 cells after 24 hrs by MTT assay; assay type: functional, cell-based; conditions: HL-60, 24 h
[24] = Growth inhibition of human GRC1 cells at 1.5 g/L after 24 hrs by MTT assay relative to control; assay type: functional; conditions: read-out: GI
HT-29 [25] = experiment: Growth inhibition of human HT-29 cells at 16 mg/ml after 48 hrs by MTT assay relative to control; assay type: functional; conditions: HT-29, 48 h, read-out: GI
T-24 = experiment: Antiproliferative activity against human T24 cells after 48 hrs by CCK8 assay; assay type: functional, cell-based; conditions: T-24, 48 h
RD [26] = experiment: Induction of apoptosis in human RD cells at 0.5 mg/ml after 24 hrs by Annexin V-FITC/propidium iodide staining based flow cytometry relative to control; assay type: functional
[27] = Growth inhibition of human GRC1 cells at 1.5 g/L after 72 hrs by MTT assay relative to control; assay type: functional; conditions: read-out: GI
RPMI-8226 [28] = experiment: Growth inhibition of human RPMI8226 cells at 1000 mg/L after 48 hrs by MTT assay relative to control; assay type: functional; conditions: RPMI-8226, 48 h, read-out: GI
HT-29 [29] = experiment: Growth inhibition of human HT-29 cells at 16 ml/L after 24 hrs by MTT assay relative to control; assay type: functional
[30] = Growth inhibition of human GRC1 cells at 0.8 g/L after 48 hrs by MTT assay relative to control; assay type: functional; conditions: read-out: GI

Chain of ATP-dependent translocase ABCB1 (P08183 whole entry): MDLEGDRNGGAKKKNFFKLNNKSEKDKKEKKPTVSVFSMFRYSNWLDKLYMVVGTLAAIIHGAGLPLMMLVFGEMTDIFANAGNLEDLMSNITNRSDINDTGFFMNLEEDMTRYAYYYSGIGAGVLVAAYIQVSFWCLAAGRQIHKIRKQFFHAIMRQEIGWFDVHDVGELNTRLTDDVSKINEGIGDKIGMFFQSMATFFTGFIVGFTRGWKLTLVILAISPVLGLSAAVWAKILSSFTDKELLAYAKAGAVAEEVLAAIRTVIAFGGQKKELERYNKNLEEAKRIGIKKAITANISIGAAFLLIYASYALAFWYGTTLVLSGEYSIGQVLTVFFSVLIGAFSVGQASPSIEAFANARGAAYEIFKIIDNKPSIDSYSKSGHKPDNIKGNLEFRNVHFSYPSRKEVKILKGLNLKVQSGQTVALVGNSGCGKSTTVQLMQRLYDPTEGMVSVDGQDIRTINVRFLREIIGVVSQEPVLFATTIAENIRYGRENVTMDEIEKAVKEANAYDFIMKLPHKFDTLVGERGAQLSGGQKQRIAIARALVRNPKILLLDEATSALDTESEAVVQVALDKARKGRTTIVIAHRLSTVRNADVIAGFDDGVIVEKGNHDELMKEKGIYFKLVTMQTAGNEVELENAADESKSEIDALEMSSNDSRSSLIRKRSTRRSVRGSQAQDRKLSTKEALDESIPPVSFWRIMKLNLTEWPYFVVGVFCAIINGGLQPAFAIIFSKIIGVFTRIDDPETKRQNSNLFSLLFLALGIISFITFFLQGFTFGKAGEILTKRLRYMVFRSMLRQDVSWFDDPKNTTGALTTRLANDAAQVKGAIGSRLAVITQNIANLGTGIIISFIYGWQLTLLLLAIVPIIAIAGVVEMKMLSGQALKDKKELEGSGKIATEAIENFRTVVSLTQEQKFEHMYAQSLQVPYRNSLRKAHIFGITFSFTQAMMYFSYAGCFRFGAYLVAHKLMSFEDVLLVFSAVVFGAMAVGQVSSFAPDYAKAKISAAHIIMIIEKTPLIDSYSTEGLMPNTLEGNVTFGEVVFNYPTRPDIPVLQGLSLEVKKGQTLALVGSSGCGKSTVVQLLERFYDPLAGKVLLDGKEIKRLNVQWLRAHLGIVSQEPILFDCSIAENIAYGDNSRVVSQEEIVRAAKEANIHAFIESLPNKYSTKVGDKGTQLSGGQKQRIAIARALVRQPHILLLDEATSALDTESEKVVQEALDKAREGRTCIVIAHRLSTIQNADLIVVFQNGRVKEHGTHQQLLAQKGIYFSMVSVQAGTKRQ

In the case of `O=C1CCC[C@@H]2[C@H]3CCCN4CCC[C@@H](CN12)[C@@H]34` [MATRINE], the Activity (HeLa) is reported as 19.53%, the “growth inhibition (GI)” value (HT-29 [1]) is reported as 45.96% and the inhibition of growth at 500 µg/mL (D341 cell line [2]) is reported as 12.7%. The inhibition of growth at 2 g/mL [3] was 74%, the IC50 (HepG2 [4]) was 8.07 mM and the “fold change (FC)” value [5] was 3.56. For the same molecule, the inhibition of growth at 300 µg/mL [6] was 8.8%, the inhibition of growth at 500 µg/mL (HT-29 [7]) was 26.9% and the IC50 (K562) was 1.77 mM. The “growth inhibition (GI)” value (HT-29 [8]) was 29.73%, the “growth inhibition (GI)” value (HT-29 [9]) was 71.62% and the inhibition of growth at 1500 µg/mL (RPMI-8226 [10]) was 39.4%. For the same molecule, the Activity (U-937) was 37.2%, the inhibition of growth at 500 µg/mL [11] was 12.3% and the IC50 (C-33-A) was 5.92 mM. For the same molecule, the IC50 (HepG2 [12]) was 3.22 mM, the Activity (PANC-1) was 42.55% and the “growth inhibition (GI)” value (HT-29 [13]) was 68.29%. For the same molecule, the “growth inhibition (GI)” value (HT-29 [14]) was 9.2%, the inhibition of growth at 250 µg/mL (HT-29 [15]) was 12.2% and the growth at 1000 µg/mL (UMR108 [16]) was 0.195%. The inhibition of growth at 2000 µg/mL (D341 cell line [17]) was 38%, the IC50 (Ca-Ski) was 5.8 mM and the Activity (U-266) was 71.05%. It also gave an Activity (HepG2 [18]) of 34.36%, an IC50 [19] of 2 mM and a growth at 500 µg/mL (UMR108 [20]) of 0.228%. The IC50 (MG-63) was 7.05 mM, the Activity (HepG2 [21]) was 38.8% and the Activity (RD [22]) was 40.1%. It also gave an IC50 (HOS-TE85) of 3.1 mM, an IC50 (HK-2) of 4.71 mM and an Activity (HepG2 [23]) of 28.91%. The IC50 5637 was 4.48 mM, the Activity (MCF7) was 7.56 - 53.92% and the Activity (NB-4) was 33%. The IC50 (HL-60) was 0.00366 mM, the inhibition of growth at 1500 µg/mL [24] was 31.6% and the inhibition of growth at 16000 µg/mL (HT-29 [25]) was 75.8%. For the same molecule, the IC50 (T-24) was 4.6 mM, the Activity (RD [26]) was 22.8% and the inhibition of growth at 1500 µg/mL [27] was 34%. For the same molecule, the inhibition of growth at 1000 µg/mL (RPMI-8226 [28]) was 30.4%, the “growth inhibition (GI)” value (HT-29 [29]) was 59.35% and the inhibition of growth at 800 µg/mL [30] was 23.1%.
